Laboratory results from PubChem BioAssay AID1963437 (Molecular Pharmacology Branch, DTP, NCI, 2024).
Values joined by “and” are separate entries in the source; they are usually repeats but may differ in a detail not shown here. Equal entries are not always repeated. One block for each compound: values may come before it.

System: OVCAR-8 complex spheroid, growth inhibition
Experiment: Anticancer human tumor OVCAR-8 cell line growth inhibition [Asc];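 note: spheroids exposed to agents for 7 days before readout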;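 for viability, T/C: percent viability relative to DMSO vehicle wells taken as 100%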
Details: for viability, T/C: stronger effect = lower value
Method in brief: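 Spheroid model: tumor line + HUVEC + hMSC. Single agents and combinations; top conc. at/near clinical Cmax (10 microM if undetermined), half-log dilutions. DMSO stocks at 800-fold test concentration.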

[1] = curve of first compound, second compound 0.0316 µM
[2] = curve of first compound, second compound 0.1 µM
[3] = curve of first compound, second compound 0.316 µM
[4] = curve of first compound, second compound 1 µM
[5] = curve of first compound, second compound 3.16 µM
[6] = curve of first compound, second compound 10 µM
[7] = second compound 0.0316 µM, first compound 0.00949 µM
[8] = second compound 0.0316 µM, first compound 0.03 µM
[9] = second compound 0.0316 µM, first compound 0.0949 µM
[10] = second compound 0.0316 µM, first compound 0.3 µM
[11] = second compound 0.1 µM, first compound 0.00949 µM
[12] = second compound 0.1 µM, first compound 0.03 µM
[13] = second compound 0.1 µM, first compound 0.0949 µM
[14] = second compound 0.1 µM, first compound 0.3 µM
[15] = second compound 0.316 µM, first compound 0.00949 µM
[16] = second compound 0.316 µM, first compound 0.03 µM
[17] = second compound 0.316 µM, first compound 0.0949 µM
[18] = second compound 0.316 µM, first compound 0.3 µM
[19] = second compound 1 µM, first compound 0.00949 µM
[20] = second compound 1 µM, first compound 0.03 µM
[21] = second compound 1 µM, first compound 0.0949 µM
[22] = second compound 1 µM, first compound 0.3 µM
[23] = second compound 3.16 µM, first compound 0.00949 µM
[24] = second compound 3.16 µM, first compound 0.03 µM
[25] = second compound 3.16 µM, first compound 0.0949 µM
[26] = second compound 3.16 µM, first compound 0.3 µM
[27] = second compound 10 µM, first compound 0.00949 µM
[28] = second compound 10 µM, first compound 0.03 µM
[29] = second compound 10 µM, first compound 0.0949 µM
[30] = second compound 10 µM, first compound 0.3 µM

- IC50 [1]: > 3000 nM
- IC50 [2]: > 3000 nM
- IC50 [3]: > 3000 nM
- IC50 [4]: > 3000 nM
- IC50 [5]: > 3000 nM
- IC50 [6]: > 3000 nM
SMILES: Cc1nc(N2CCC3(CC2)COC(C)C3N)c(CO)nc1Sc1ccnc(N)c1Cl (stereo not drawn) + Cc1c(S(C)(=O)=O)c(-c2cc(F)cc(N3CCN(c4ccc(NS(=O)(=O)c5ccc(NC(CCN6CCC(C(=O)OCCCP(=O)(O)O)CC6)CSc6ccccc6)c(S(=O)(=O)C(F)(F)F)c5)cc4)CC3)c2)c(-c2ccc(Cl)cc2)n1C(C)C
- viability, T/C [7]: 97%
- viability, T/C [8]: 96.6%
- viability, T/C [9]: 159%
- viability, T/C [10]: 188%
- viability, T/C (second compound 0.0316 µM, first compound 0.949 µM): 226%
- viability, T/C (second compound 0.0316 µM, first compound 3 µM): 206%
- viability, T/C [11]: 91.3%
- viability, T/C [12]: 148%
- viability, T/C [13]: 152%
- viability, T/C [14]: 190%
- viability, T/C (second compound 0.1 µM, first compound 0.949 µM): 212%
- viability, T/C (second compound 0.1 µM, first compound 3 µM): 202%
- viability, T/C [15]: 97.4%
- viability, T/C [16]: 132%
- viability, T/C [17]: 176%
- viability, T/C [18]: 200%
- viability, T/C (second compound 0.316 µM, first compound 0.949 µM): 231%
- viability, T/C (second compound 0.316 µM, first compound 3 µM): 175%
- viability, T/C [19]: 92.6%
- viability, T/C [20]: 139%
- viability, T/C [21]: 176%
- viability, T/C [22]: 210%
- viability, T/C (second compound 1 µM, first compound 0.949 µM): 205%
- viability, T/C (second compound 1 µM, first compound 3 µM): 169%
- viability, T/C [23]: 102%
- viability, T/C [24]: 139%
- viability, T/C [25]: 182%
- viability, T/C [26]: 221%
- viability, T/C (second compound 3.16 µM, first compound 0.949 µM): 167%
- viability, T/C (second compound 3.16 µM, first compound 3 µM): 144%
- viability, T/C [27]: 110%
- viability, T/C [28]: 152%
- viability, T/C [29]: 177%
- viability, T/C [30]: 206%
- viability, T/C (second compound 10 µM, first compound 0.949 µM): 174%
- viability, T/C (second compound 10 µM, first compound 3 µM): 121%

- IC50 [1]: > 300 nM
- IC50 [2]: > 300 nM
- IC50 [3]: 219 nM
- IC50 [4]: 155 nM
- IC50 [5]: 131 nM
- IC50 [6]: 108 nM
SMILES: NC(=O)C(=Cn1cnc(-c2cc(C(F)(F)F)cc(C(F)(F)F)c2)n1)c1cncnc1 + Cc1c(S(C)(=O)=O)c(-c2cc(F)cc(N3CCN(c4ccc(NS(=O)(=O)c5ccc(NC(CCN6CCC(C(=O)OCCCP(=O)(O)O)CC6)CSc6ccccc6)c(S(=O)(=O)C(F)(F)F)c5)cc4)CC3)c2)c(-c2ccc(Cl)cc2)n1C(C)C
- viability, T/C (second compound 0.0316 µM, first compound 0.000949 µM): 107%
- viability, T/C (second compound 0.0316 µM, first compound 0.003 µM): 97.1%
- viability, T/C [7]: 103%
- viability, T/C [8]: 114%
- viability, T/C [9]: 89.3%
- viability, T/C [10]: 55.4%
- viability, T/C (second compound 0.1 µM, first compound 0.000949 µM): 103%
- viability, T/C (second compound 0.1 µM, first compound 0.003 µM): 92.6%
- viability, T/C [11]: 93.5%
- viability, T/C [12]: 102%
- viability, T/C [13]: 90.4%
- viability, T/C [14]: 57.6%
- viability, T/C (second compound 0.316 µM, first compound 0.000949 µM): 115%
- viability, T/C (second compound 0.316 µM, first compound 0.003 µM): 112%
- viability, T/C [15]: 101%
- viability, T/C [16]: 107%
- viability, T/C [17]: 90.4%
- viability, T/C [18]: 34.8%
- viability, T/C (second compound 1 µM, first compound 0.000949 µM): 119%
- viability, T/C (second compound 1 µM, first compound 0.003 µM): 111%
- viability, T/C [19]: 114%
- viability, T/C [20]: 116%
- viability, T/C [21]: 73.8%
- viability, T/C [22]: 18.1%
- viability, T/C (second compound 3.16 µM, first compound 0.000949 µM): 109%
- viability, T/C (second compound 3.16 µM, first compound 0.003 µM): 104%
- viability, T/C [23]: 121%
- viability, T/C [24]: 111%
- viability, T/C [25]: 66.7%
- viability, T/C [26]: 6.92%
- viability, T/C (second compound 10 µM, first compound 0.000949 µM): 117%
- viability, T/C (second compound 10 µM, first compound 0.003 µM): 115%
- viability, T/C [27]: 132%
- viability, T/C [28]: 127%
- viability, T/C [29]: 55.8%
- viability, T/C [30]: 4.41%

- IC50 (curve of compound): > 100 nM
SMILES: Cn1ncnc1[C@H]1c2n[nH]c(=O)c3cc(F)cc(c23)N[C@@H]1c1ccc(F)cc1
- viability, T/C (compound 0.000316 µM): 92.4% and 93.5% and 99.5%
- viability, T/C (compound 0.001 µM): 94.9% and 97.8% and 88.9%
- viability, T/C (compound 0.00316 µM): 95.5% and 93.6% and 106%
- viability, T/C (compound 0.01 µM): 114% and 102% and 109%
- viability, T/C (compound 0.0316 µM): 115% and 117% and 105%
- viability, T/C (compound 0.1 µM): 132% and 102% and 125%

- IC50 (curve of first compound, second compound 0.00316 µM): > 100 nM
- IC50 (curve of first compound, second compound 0.01 µM): > 100 nM
- IC50 [1]: > 100 nM
- IC50 [2]: > 100 nM
- IC50 [3]: > 100 nM
- IC50 [4]: > 100 nM
SMILES: NC1CCC(NC2CC2c2ccccc2)CC1 (stereo not drawn) + CNC(C)C(=O)NC1CN(S(=O)(=O)c2cccc(S(=O)(=O)N3CCC4CCC(C(=O)NC(c5ccccc5)c5ccccc5)N4C(=O)C(NC(=O)C(C)NC)C3)c2)CCC2CCC(C(=O)NC(c3ccccc3)c3ccccc3)N2C1=O
- viability, T/C (second compound 0.00316 µM, first compound 0.000316 µM): 117%
- viability, T/C (second compound 0.00316 µM, first compound 0.001 µM): 106%
- viability, T/C (second compound 0.00316 µM, first compound 0.00316 µM): 102%
- viability, T/C (second compound 0.00316 µM, first compound 0.01 µM): 90.9%
- viability, T/C (second compound 0.00316 µM, first compound 0.0316 µM): 99.4%
- viability, T/C (second compound 0.00316 µM, first compound 0.1 µM): 87.1%
- viability, T/C (second compound 0.01 µM, first compound 0.000316 µM): 118%
- viability, T/C (second compound 0.01 µM, first compound 0.001 µM): 87.7%
- viability, T/C (second compound 0.01 µM, first compound 0.00316 µM): 119%
- viability, T/C (second compound 0.01 µM, first compound 0.01 µM): 91.5%
- viability, T/C (second compound 0.01 µM, first compound 0.0316 µM): 86.7%
- viability, T/C (second compound 0.01 µM, first compound 0.1 µM): 91.7%
- viability, T/C (second compound 0.0316 µM, first compound 0.000316 µM): 93.9%
- viability, T/C (second compound 0.0316 µM, first compound 0.001 µM): 112%
- viability, T/C (second compound 0.0316 µM, first compound 0.00316 µM): 96.3%
- viability, T/C (second compound 0.0316 µM, first compound 0.01 µM): 98.5%
- viability, T/C (second compound 0.0316 µM, first compound 0.0316 µM): 101%
- viability, T/C (second compound 0.0316 µM, first compound 0.1 µM): 107%
- viability, T/C (second compound 0.1 µM, first compound 0.000316 µM): 79.2%
- viability, T/C (second compound 0.1 µM, first compound 0.001 µM): 79.2%
- viability, T/C (second compound 0.1 µM, first compound 0.00316 µM): 93.3%
- viability, T/C (second compound 0.1 µM, first compound 0.01 µM): 93%
- viability, T/C (second compound 0.1 µM, first compound 0.0316 µM): 88.4%
- viability, T/C (second compound 0.1 µM, first compound 0.1 µM): 104%
- viability, T/C (second compound 0.316 µM, first compound 0.000316 µM): 78.8%
- viability, T/C (second compound 0.316 µM, first compound 0.001 µM): 86.6%
- viability, T/C (second compound 0.316 µM, first compound 0.00316 µM): 88.2%
- viability, T/C (second compound 0.316 µM, first compound 0.01 µM): 80%
- viability, T/C (second compound 0.316 µM, first compound 0.0316 µM): 82.8%
- viability, T/C (second compound 0.316 µM, first compound 0.1 µM): 87.2%
- viability, T/C (second compound 1 µM, first compound 0.000316 µM): 77.9%
- viability, T/C (second compound 1 µM, first compound 0.001 µM): 79.3%
- viability, T/C (second compound 1 µM, first compound 0.00316 µM): 94%
- viability, T/C (second compound 1 µM, first compound 0.01 µM): 74.7%
- viability, T/C (second compound 1 µM, first compound 0.0316 µM): 85.3%
- viability, T/C (second compound 1 µM, first compound 0.1 µM): 85.7%
